Some results are limits rather than exact numbers.

The target of test [1] is T1, full length recombinant Pim-3 protein (Homo sapiens, UniProt Q86V86).
T1 construct: by full length recombinant Pim-1, Pim-2, or Pim-3 protein; purchased Millipore (UK)
The experiment in a line: Pim-3 enzyme assay (HTRF, phosphorylation of biotinylated-BAD (S112) peptide). The test is classed as biochemical. As to conditions: read-out: Pim3 IC50. A digest of the protocol: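 HTRF read-out, streptavidin-APC plus Eu-labelled anti-phospho-BAD (S112) antibody, measures BAD peptide phosphorylation by full-length recombinant Pim-3. Buffer: 60 mM Hepes pH 7.0, 2 mM DTT, 0.05% BSA; EDTA (3 mM) stop. Percent of control per well, IC50 by 4-parameter logistic fit.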

Test [2] addresses T2, full length recombinant Pim-2 protein (Homo sapiens, UniProt Q9P1W9).
T2 construct: by full length recombinant Pim-1, Pim-2, or Pim-3 protein; hexahistidine tag followed by a thrombin cleavage site (N); made in house; host or cells: Sf9 (baculovirus) or E. coli (pET28)
As to the kind of experiment: Pim-2 enzyme assay (HTRF, phosphorylation of biotinylated-BAD (S112) peptide). Format: biochemical. Particulars: enzyme assay, Pim-2; read-out: Pim2_IC50. A digest of the protocol: (§1)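 HTRF readout (europium anti-pBAD S112 antibody, streptavidin-APC) of biotin-BAD peptide phosphorylation by recombinant full-length Pim-1 or Pim-2, buffer 60 mM Hepes pH 7.0, 2 mM DTT, 0.05% BSA. Enzymes were His6-tagged, from baculovirus/Sf9 or E. coli.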
On the technique in general: In TR-FRET formats the signal depends on donor and acceptor labels being close together.

Test [3] has as its target T3, full length recombinant Pim-1 protein (Homo sapiens, UniProt P11309).
T3 construct: by full length recombinant Pim-1, Pim-2, or Pim-3 protein; hexahistidine tag followed by a thrombin cleavage site (N); made in house; host or cells: Sf9 (baculovirus) or E. coli (pET28)
The experiment in a line: Pim-1 enzyme assay (HTRF, phosphorylation of biotinylated-BAD (S112) peptide). As to conditions: enzyme assay, Pim-1; read-out: Pim_1_IC50. Format: biochemical. The method, boiled down: as §1

The target in test [4] is T4, Pim-2 stably transfected into the U2OS human osteogenic sarcoma line (Homo sapiens, UniProt Q9P1W9).
T4 construct: expressed in transfected cells; host or cells: U2OS human osteogenic sarcoma line
As to the kind of experiment: Pim cell assay, phospho-BAD normalized against total BAD, U2OS stably transfected with Pim-2. Further: high dose 31.6 µM. Format: cell-based. Particulars: U2OS cells stably transfected with Pim-2, phospho-BAD; high dose […]; read-out: Pim2_Cell_IC50. The method, boiled down:
(§2)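 Read-out is phospho-BAD relative to total BAD, by MSD electrochemiluminescence on lysates, expressed as % phosphoprotein = (2×phospho)/(phospho+total)×100. Engineered U2OS lines carrying stably transfected Pim-1 or Pim-2 received 10-point compound dilutions at 0.3% final DMSO after overnight culture at 37 °C; DMSO-only wells served as high control.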

Test [5] has as its target T5, Pim-1 stably transfected into the U2OS human osteogenic sarcoma line (Homo sapiens, UniProt P11309).
T5 construct: expressed in transfected cells; host or cells: U2OS human osteogenic sarcoma line
The experiment in a line: Pim cell assay, phospho-BAD normalized against total BAD, U2OS stably transfected with Pim-1. The test is classed as cell-based. Particulars: U2OS cells stably transfected with Pim-1, phospho-BAD; high dose […]; read-out: Pim1_Cell_IC50. The method, boiled down:
as §2

T4 sequence (Q9P1W9 whole entry): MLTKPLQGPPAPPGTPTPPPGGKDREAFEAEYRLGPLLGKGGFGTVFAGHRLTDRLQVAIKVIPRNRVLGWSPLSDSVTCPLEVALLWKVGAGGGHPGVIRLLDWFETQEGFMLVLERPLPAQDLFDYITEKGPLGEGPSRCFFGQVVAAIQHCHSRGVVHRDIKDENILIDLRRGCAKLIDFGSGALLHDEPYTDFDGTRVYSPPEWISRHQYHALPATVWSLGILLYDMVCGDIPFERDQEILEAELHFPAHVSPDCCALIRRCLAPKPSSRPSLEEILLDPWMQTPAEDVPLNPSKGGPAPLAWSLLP
T2 sequence (Q9P1W9 whole entry): as above
T3 sequence (P11309 whole entry): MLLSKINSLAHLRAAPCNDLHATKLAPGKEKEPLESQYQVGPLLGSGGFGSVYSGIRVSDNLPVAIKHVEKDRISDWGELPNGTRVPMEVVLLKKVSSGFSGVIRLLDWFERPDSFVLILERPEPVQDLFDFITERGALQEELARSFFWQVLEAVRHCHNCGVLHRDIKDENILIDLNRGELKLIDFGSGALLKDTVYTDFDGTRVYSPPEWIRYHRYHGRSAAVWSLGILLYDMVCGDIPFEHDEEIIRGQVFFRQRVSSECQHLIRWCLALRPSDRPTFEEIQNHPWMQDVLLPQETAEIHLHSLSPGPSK
T5 sequence (P11309 whole entry): as above

Turning to `CN(C)C(=O)c1ccc(F)c(-c2ccc3[nH]nc(-c4cncc(N5CCC(N)CC5)n4)c3c2)c1` [Example 40, 3-(3-(6-(4-amino-1-piperidinyl)-2-pyrazinyl)-1H-indazol-5-yl)-4-fluoro-N,N-dimethylbenzamide], the IC50 in test [1] was determined as 16 nM; in test [2], 13 nM; in test [3], 24 nM; in test [4] it was 7.06 µM; in test [5], 2370 nM.

Turning to `NC1CCN(c2cncc(-c3n[nH]c4ccc(-c5cc(C(=O)N6CCCCC6)ccc5F)cc34)n2)CC1` [Example 41, 1-(6-(5-(2-fluoro-5-(1-piperidinylcarbonyl)phenyl)-1H-indazol-3-yl)-2-pyrazinyl)-4-piperidinamine], the IC50 in test [1] is 26 nM; in test [2], 29 nM; in test [3] it was 35 nM; in test [4], 8.52 µM; in test [5], 1400 nM.

For the molecule `NC1CCN(c2cncc(-c3n[nH]c4ccc(-c5cc(C(=O)N6CCOCC6)ccc5F)cc34)n2)CC1` [Example 42, 1-(6-(5-(2-fluoro-5-(4-morpholinylcarbonyl)phenyl)-1H-indazol-3-yl)-2-pyrazinyl)-4-piperidinamine], the IC50 in test [1] is 20 nM; in test [2], 41 nM; in test [3], 32 nM; in test [4] it was 9.84 µM; in test [5] it was 2800 nM.

As for `CCNC(=O)c1ccc(F)c(-c2ccc3[nH]nc(-c4cncc(N5CCC(N)CC5)n4)c3c2)c1` [Example 43, 3-(3-(6-(4-amino-1-piperidinyl)-2-pyrazinyl)-1H-indazol-5-yl)-N-ethyl-4-fluorobenzamide], the IC50 came to 3 nM in test [1]; 5 nM in test [2]; 7 nM in test [3]; 14.9 µM in test [4]; 2520 nM in test [5].

With `CC(C)NC(=O)c1ccc(F)c(-c2ccc3[nH]nc(-c4cncc(N5CCC(N)CC5)n4)c3c2)c1` [Example 44, 3-(3-(6-(4-amino-1-piperidinyl)-2-pyrazinyl)-1H-indazol-5-yl)-4-fluoro-N-(1-methylethyl)benzamide], the IC50 in test [1] was 4 nM; in test [2], 5 nM; in test [3], 7 nM; in test [4] it was 4.58 µM; in test [5] it was 932 nM.

Regarding `NC1CCN(c2cncc(-c3n[nH]c4ccc(-c5cc(C(=O)Nc6ccccc6)ccc5F)cc34)n2)CC1` [Example 45, 3-(3-(6-(4-amino-1-piperidinyl)-2-pyrazinyl)-1H-indazol-5-yl)-4-fluoro-N-phenylbenzamide], the IC50 in test [1] was 8 nM; in test [2] it was 23 nM; in test [3], 12 nM; in test [4], above 31.6 µM; in test [5], 1560 nM.

Take `CCN(CC)C(=O)c1ccc(F)c(-c2ccc3[nH]nc(-c4cncc(N5CCC(N)CC5)n4)c3c2)c1` [Example 46, 3-(3-(6-(4-amino-1-piperidinyl)-2-pyrazinyl)-1H-indazol-5-yl)-N,N-diethyl-4-fluorobenzamide]: the IC50 in test [1] is 22 nM; in test [2] it was 49 nM; in test [3], 20 nM; in test [4] it was 7.03 µM; in test [5], 959 nM.

As to `CCN(CC)C(=O)c1cccc(-c2ccc3[nH]nc(-c4cncc(N5CCC(N)CC5)n4)c3c2)c1F` [Example 47, 3-(3-(6-(4-amino-1-piperidinyl)-2-pyrazinyl)-1H-indazol-5-yl)-N,N-diethyl-2-fluorobenzamide], the IC50 in test [1] was 43 nM; in test [2], 290 nM; in test [3] it was 43 nM; in test [4], above 31.6 µM; in test [5], 1940 nM.

Take `NC1CCN(c2cncc(-c3n[nH]c4ccc(-c5cc6ccccc6nc5Cl)cc34)n2)CC1` [Example 48, 1-(6-(5-(2-chloro-3-quinolinyl)-1H-indazol-3-yl)-2-pyrazinyl)-4-piperidinamine]: the IC50 is 27 nM in test [1]; 285 nM in test [2]; 44 nM in test [3]; above 31.6 µM in test [4]; 1110 nM in test [5].

For `Cn1ccc2cc(-c3ccc4[nH]nc(-c5cncc(N6CCC(N)CC6)n5)c4c3)ccc2c1=O` [Example 49, 6-(3-(6-(4-amino-1-piperidinyl)-2-pyrazinyl)-1H-indazol-5-yl)-2-methyl-1(2H)-isoquinolinone], the IC50 in test [1] was 7 nM; in test [2], 72 nM; in test [3], 7 nM; in test [4] it was above 31.6 µM; in test [5], 1340 nM.

Take `Cn1c(=O)cc(-c2ccc3[nH]nc(-c4cncc(N5CCC(N)CC5)n4)c3c2)c2ccccc21` [Example 50, 4-(3-(6-(4-amino-1-piperidinyl)-2-pyrazinyl)-1H-indazol-5-yl)-1-methyl-2(1H)-quinolinone]: the IC50 in test [1] was 21 nM; in test [2], 470 nM; in test [3] it was 24 nM; in test [4] it was above 31.6 µM; in test [5], 2270 nM.

As to `CN1C(=O)Cc2cc(-c3ccc4[nH]nc(-c5cncc(N6CCC(N)CC6)n5)c4c3)ccc21` [Example 51, 5-(3-(6-(4-amino-1-piperidinyl)-2-pyrazinyl)-1H-indazol-5-yl)-1-methyl-1,3-dihydro-2H-indol-2-one], the IC50 in test [1] is 9 nM; in test [2], 87 nM; in test [3], 13 nM; in test [4], above 31.6 µM; in test [5], 1460 nM.

For `NC1CCN(c2cncc(-c3n[nH]c4ccc(-c5ccc6ncsc6c5)cc34)n2)CC1` [Example 52, 1-(6-(5-(1,3-benzothiazol-6-yl)-1H-indazol-3-yl)-2-pyrazinyl)-4-piperidinamine], the IC50 in test [1] was 1 nM; in test [2], 24 nM; in test [3], 4 nM; in test [4], 9.5 µM; in test [5] it was 237 nM.

As for `NC1CCN(c2cncc(-c3n[nH]c4ccc(-c5ccc6scnc6c5)cc34)n2)CC1` [Example 53, 1-(6-(5-(1,3-benzothiazol-5-yl)-1H-indazol-3-yl)-2-pyrazinyl)-4-piperidinamine], the IC50 in test [1] was determined as 1 nM; in test [2], 17 nM; in test [3], 2 nM; in test [4], 9.93 µM; in test [5], 280 nM.

Consider `NC1CCN(c2cncc(-c3n[nH]c4ccc(-c5cnc6ccccc6c5)cc34)n2)CC1` [Example 55, 1-(6-(5-(3-quinolinyl)-1H-indazol-3-yl)-2-pyrazinyl)-4-piperidinamine], for which the IC50 in test [1] was 1 nM; in test [2] it was 51 nM; in test [3] it was 1 nM; in test [4], above 31.6 µM; in test [5], 287 nM.

As to `NC1CCN(c2cncc(-c3n[nH]c4ccc(-c5ccc6nccnc6c5)cc34)n2)CC1` [Example 56, 1-(6-(5-(6-quinoxalinyl)-1H-indazol-3-yl)-2-pyrazinyl)-4-piperidinamine], the IC50 is 1 nM in test [1]; 15 nM in test [2]; 2 nM in test [3]; above 31.6 µM in test [4]; 130 nM in test [5].

For the molecule `CN1CCOc2cc(-c3ccc4[nH]nc(-c5cncc(N6CCC(N)CC6)n5)c4c3)cnc21` [Example 58, 1-(6-(5-(4-methyl-3,4-dihydro-2H-pyrido[3,2-b][1,4]oxazin-7-yl)-1H-indazol-3-yl)-2-pyrazinyl)-4-piperidinamine], the IC50 in test [1] was 1 nM; in test [2], 11 nM; in test [3] it was 2 nM; in test [4] it was 6.76 µM; in test [5], 164 nM.

As for `CS(=O)(=O)c1ccc(-c2ccc3[nH]nc(-c4cncc(N5CCC(N)CC5)n4)c3c2)cc1` [Example 59, 1-(6-(5-(4-(methylsulfonyl)phenyl)-1H-indazol-3-yl)-2-pyrazinyl)-4-piperidinamine], the IC50 was 11 nM in test [1]; 28 nM in test [2]; 3 nM in test [3]; above 31.6 µM in test [4]; 2160 nM in test [5].

As for `N#Cc1ccccc1-c1ccc2[nH]nc(-c3cncc(N4CCC(N)CC4)n3)c2c1` [Example 60, 2-(3-(6-(4-amino-1-piperidinyl)-2-pyrazinyl)-1H-indazol-5-yl)benzonitrile], the IC50 in test [1] is 4 nM; in test [2], 36 nM; in test [3] it was 5 nM; in test [4], 12.8 µM; in test [5] it was 419 nM.

These data come from US9090593B2, “Bicyclic compounds as Pim inhibitors” (AMGEN INC., priority 2010, dated 2015).
